Assays:
[1] = system: T98G (glioblastoma); test: Antiproliferative activity on other tumour cell lines (CellTiter-Glo): T98G; assay type: cell-based; conditions: Homo sapiens, 72 h of treatment
Procedure: (§1) Other human adherent cancer cell lines were cultured in their corresponding cell medium (as specified in Table 4) supplemented with 10% FBS (v/v) and 1% P/S (v/v). Twenty-four hours prior to treatment with the compounds to be tested (Examples 1, 12 and 21), the cells were seeded in 96-well plates at different densities depending of the cell line (as specified in Table 4).
(§2) Depending on the cell line, a 50, 125 or 250 μM solution of the compounds of examples 1, 12 and 21 were prepared in complete medium, and then serially diluted (1:2) (Table 5). A solution of complete medium with DMSO was used as a vehicle control.
(§3) Fifty microliters of each serially diluted compound solution was added by medium replacement in two wells (by duplicate). After 48 h of treatment, 50 μL of fresh 2X serially diluted compound solution was added to the corresponding wells of the plate (100 μL of final volume/well). After twenty-four additional hours (a total of 72 h of treatment), an equal volume (100 μL) of CellTiter-Glo Reagent (Promega) was added to each well, plates were shaken during 2 min and incubated at rt for 10 min. Luminescence was recorded using a Spark multimode microplate reader and an integration time of 1 s per well.

[2] = system: A375 (melanoma); test: Antiproliferative activity on other tumour cell lines (CellTiter-Glo): A375; assay type: cell-based; conditions: Homo sapiens, A-375; A375, 72 h of treatment
Procedure: as §1, §2, §3

[3] = system: HCT116 (colon); test: Antiproliferative activity on other tumour cell lines (CellTiter-Glo): HCT116; assay type: cell-based; conditions: Homo sapiens; HCT 116, 72 h of treatment
Procedure: as §1, §2, §3

[4] = system: HL60 cell line; test: Antiproliferative activity on HL60 cell line (CellTiter-Glo); assay type: cell-based; conditions: Homo sapiens, HL-60; HL60, 72 h of treatment
Procedure: The human leukaemic cell line HL60 was grown in suspension in RPMI 1640 medium containing 10% (v/v) FBS and 1% (v/v) P/S (Life Technologies). […] Leukaemia cells were suspended at a density of 2×10^5 cells/mL in complete RPMI 1640 medium and 25 μL were seeded in each well (5×10^3 final total cells/well). A 10 μM solution of the compounds of examples 1, 12 and 21, and a 25 μM solution of all other compounds were prepared in complete medium, and then serially diluted (1:2) (as specified in Table 3 below). A solution of complete medium with DMSO was used as a vehicle control.
Twenty-five microliters of each serially diluted compound solution were added to the corresponding wells of the plate (50 μL of final volume/well). After 48 h of treatment, 50 μL of fresh 2X serially diluted compound solution was added to their corresponding wells (100 μL of final volume/well). After twenty-four additional hours, an equal volume (100 μL) of CellTiter-Glo Reagent (Promega) was added to each well, plates were shaken during 2 min and incubated at rt for 10 min. Luminescence was recorded using a Spark multimode microplate reader and an integration time of 1 s per well.

[5] = system: MCF7 (breast); test: Antiproliferative activity on other tumour cell lines (CellTiter-Glo): MCF7; assay type: cell-based; conditions: Homo sapiens; MCF7, 72 h of treatment
Procedure: as §1, §2, §3

[6] = system: LN229 (glioblastoma); test: Antiproliferative activity on other tumour cell lines (CellTiter-Glo): LN229; assay type: cell-based; conditions: Homo sapiens, LN-229; LN229, 72 h of treatment
Procedure: as §1, §2, §3

[7] = system: Hop62 (lung); test: Antiproliferative activity on other tumour cell lines (CellTiter-Glo): Hop62; assay type: cell-based; conditions: Homo sapiens, HOP-62; Hop62, 72 h of treatment
Procedure: as §1, §2, §3

[8] = biological target: human TET2 construct (Homo sapiens, UniProt Q6N021, A1837G/A1840G/D1704G/D1842G/DEL1471-1702/DEL1708-1833/E1841G/F1706G/N1843S/Q1834G/V1836G); test: Determination of TET2 binding by Surface Plasmon Resonance; conditions: SPR, Biacore T200, 25° C., steady state fit to single site interaction model
Procedure: The human methylcytosine dioxygenase TET2 construct used (1129-2002 with residues 1471-1843 replaced by a 15-residue GS-linker) was expressed in a pET-28a(+)psumo vector with kanamycin resistance and an N-terminal His6 tag, and cloned in Rosetta D3 Escherichia coli competent cells. Transformed cells were cultured overnight in 10 mL of LB media supplied with kanamycin (50 μg/mL), then scaled to 1 L LB medium supplied with kanamycin (50 μg/mL) and grown at 37° C. Once the optical density (OD600) achieved 0.8, protein expression was induced with 0.4 mM isopropyl-β-thiogalactopyranoside (IPTG) overnight at 18° C. Cells were harvested by centrifugation (8,000 rpm, 4° C., 30 min) and the pellet obtained was resuspended in 15 mL of buffer A (50 mM Hepes, 150 mM NaCl, 30 mM imidazole, 2 mM β-mercaptoethanol (pH 8.0) supplemented with Pierce protease inhibitor cocktail (ThermoFisher Scientific)) and lysed by sonication (1 min 40 s: 10 cycles×10 s ON, 30 s OFF, A=35%, T=19° C.) followed by two consecutive centrifugations (8,000 rpm, 4° C., 30 min) to clarify the lysate.
The TET2 protein was purified using an AKTA Start system (GE Healthcare, Uppsala, Sweden) by two-step purification procedure: one His-affinity chromatography followed by a size exclusion chromatography. First, the protein fraction obtained during the lysis (supernatant) was applied to a 5 mL HisTrap HP column (GE Healthcare), washed with buffer A (50 mM Hepes, 150 mM NaCl, 30 mM imidazole, 2 mM […] (pH 8.0)) and the bound protein was eluted with buffer B (50 mM Hepes, 150 mM NaCl, 250 mM imidazole, 2 mM β-mercaptoethanol (pH 8.0)). The eluted protein-containing fractions were pooled and concentrated up to 4 mL for the last purification step: a size exclusion chromatography (HiPrep 16/60 Sephacryl S-100 HR) in 50 mM Hepes, 150 mM NaCl, 2 mM β-mercaptoethanol (pH 8.0). Finally, the mass and purity of the protein were verified by SDS-electrophoresis and mass spectrometry.
The binding of compounds of the examples was determined by Surface Plasmon Resonance (SPR) using a Biacore T200 SPR biosensor instrument (GE Healthcare, Uppsala, Sweden) at 25° C. The human TET2 construct was immobilized on a CM5 sensor chip using a standard covalent immobilization via amine coupling following the activation of the carboxymethyl dextran matrix of the sensor chip (injection of a solution containing 0.1 M N-hydroxysuccinimide and 0.4 M 1-ethyl-3-[3-(dimethylamino)propyl]carbodiimide hydrochloride at a flow rate of 15 μL/min for 7 min). The protein immobilization was achieved after the injection of 5 μg/mL TET2 in 10 mM sodium acetate (pH 4.0) at a flow rate of 5 μL/min. Unreacted activated groups of the dextran matrix were deactivated by injection of 1 M ethanolamine hydrochloride for 7 min at a flow rate of 15 μL/min. The corresponding matrix activation and protein immobilization were performed using as a running buffer a phosphate buffered saline solution (1.05× PBS: 10 mM phosphate, pH 7.4, 150 mM NaCl). The screened compounds were prepared in a 20 mM stock solution in DMSO and diluted with 1.05× PBS to achieve a final 5% (v/v) DMSO concentration. The running buffer of the interaction assays consisted of 1×PBS, 5% (v/v) DMSO. The flow rate used for the screening was 60 μL/min and the ligand association and dissociation times set were 60 s and 120 s, respectively.
For data analysis the software used was the Biacore T200 Evaluation software. Different corrections were applied. First, the nonspecific binding to the chip surface and the baseline drift were corrected subtracting the signals of a reference surface (where the immobilization procedure was carried out without proteins) to the signals obtained on the TET2 surface. Second, a series of solvent standards (solvent correction) were introduced to remove the differences derived from the DMSO. Finally, the background was corrected subtracting blank injections (blank subtraction) to the injected compound signals.

[9] = system: MDA-MB-468 (breast); test: Antiproliferative activity on other tumour cell lines (CellTiter-Glo): MDA-MB-468; assay type: cell-based; conditions: Homo sapiens, MD-MB-468, 72 h of treatment
Procedure: as §1, §2, §3

| Compound | EC50 [1] | EC50 [2] | EC50 [3] | EC50 [4] | melting point | EC50 [5] | EC50 [6] | EC50 [7] | Kd [8] | EC50 [9] |
| --- | --- | --- | --- | --- | --- | --- | --- | --- | --- | --- |
| Cc1[nH]c2ccccc2c1-c1csc(NC(=O)Cc2cn3ccsc3n2)n1 [Example 1, 2-(imidazo[2,1-b]thiazol-6-yl)-N-[4-(2-methyl-1H-indol-3-yl)thiazol-2-yl]acetamide] | 73.7 µM | 1.4 µM | 12.1 µM | 0.113 µM | 210 to 212 °C | 14.6 µM | 3.3 µM | 40.1 µM | 16 µM | 16 µM |
| Cc1ccc2[nH]cc(-c3csc(NC(=O)Cc4cn5ccsc5n4)n3)c2c1 [Example 24, 2-(imidazo[2,1-b]thiazol-6-yl)-N-[4-(5-methyl-1H-indol-3-yl)thiazol-2-yl]acetamide] |  |  |  | 0.912 µM | 160 to 162 °C |  |  |  | 1 µM |  |
